US20220323471A1 (priority 2019, published 2022)

Tested on: endosomes and lysosomes of HT1080 cells
Assay: Acridine Orange fluorescence, endosomal/lysosomal acidification
Format: cell-based, human
Settings: 4 hours pre-incubation, DGP, diphyllin, 6DG 2, 1 or 0.1 μM, Bafilomycin 100 nM, NH4Cl 25 mM
Experimental: To determine whether DGP inhibited ZIKV infection by preventing the acidification of endosomes and lysosomes, Acridine Orange (AO) was used, a cell-permeable fluorescent dye marker that accumulates in low pH compartments such as endosomes and lysosomes.
HT1080 cells were pre-incubated for 4 hours with the Bafilomycin (FIG. 10A, 100 nM), NH4Cl (FIG. 10A, 25 mM), DGP (FIG. 10B: 2 μM, 1 μM, or 0.1 μM) diphyllin (FIG. 10C: 2 μM, 1 μM, or 0.1 μM), or 6DG (FIG. 10C: 2 μM, 1 μM, or 0.1 μM) to test whether DGP prevents endosomal/lysosomal acidification. After staining the cells with 1 μg/mL of AO, changes in fluorescence were measured using a Celesta flow cytometer on the PerCP-Cy5-5-A channel. A shift in the AO fluorescence is indicated with an arrow in FIGS. 10A-10D.
Acridine Orange (Invitrogen) staining was performed as described previously (Kanzawa, T. et al. 2004, “Role of autophagy in temozolomide-induced cytotoxicity for malignant glioma cells.” Cell Death Differ 11(4): 448-457). Cells were stained with 1 μg/mL AO in 10% FBS DMEM for 30 min at 37° C. and then collected by trypsinization. Changes in fluorescence were measured using a Celesta flow cytometer in the PerCP-Cy5-5-A channel.

SMILES: COc1cc2c(OC3OC(C)C(O)C(O)C3O)c3c(c(-c4ccc5c(c4)OCO5)c2cc1OC)C(=O)OC3 (stereo not shown) [DGP, 6-deoxyglucose-diphyllin]
- acidification of endosomes and lysosomes (AO fluorescence): decreased AO fluorescence
